The results in this text go back to PubChem BioAssay AID179 (DTP/NCI, 2004).

The test system of the test is CEM cells HIV-1 protection, formazan growth assay. The experiment in a line: NCI AIDS Antiviral Assay. The following applies: for IC50: measured here: growth of uninfected CEM cells. The gist of the method:
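Five concentrations of each compound were applied to infected and uninfected human CEM cells. Protection from HIV-1 was judged from growth measured with a soluble formazan assay.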

“And” between values parts separate entries of the source, which are not always exact repeats. Equal entries are not always repeated. The source made the active and inactive calls.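 How the source made its calls: active means compounds giving half or more protection of infected cells from virus-caused growth loss, again on retest; inactive means the rest.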 Where a SMILES comes first, the peptide text is derived from it. [ ]: non-standard residue; d: D form. The star is where a group is joined. Phe(4-NO2) = N[CH](Cc1ccc([N+](=O)[O-])cc1)C(=O)O; Boc = CC(C)(C)OC(=O)*; OtBu = CC(C)(C)O* Some results are limits rather than exact numbers.

For the compound `Cc1c2ccccc2nc(CS(=O)(=O)c2ccccc2)[n+]1[O-]`, the EC50 was > 200 µM and the IC50 came to 12.6 µM.

Regarding `O=S(CCc1ccccc1)Nc1ccccc1` (stereo unspecified), the EC50 was > 200 µM and the IC50 was > 200 µM.

`O=C(O)c1ccc([N+](=O)[O-])cc1S(=O)(=O)O`: the EC50 was > 200 µM and the IC50 was > 200 µM.

Take `CCN1CCC(O)(/C=C/c2ccc(C)cc2C)C(C(=O)/C=C/c2ccc(C)cc2C)C1` (stereo unspecified): the EC50 is > 200 µM and the half-maximal inhibitory concentration (IC50) turned out to be 3.24 µM.

`CCCCCCCCCCCC(=O)Oc1c(Cl)cc(Cl)c(OC(=O)C(=O)Oc2c(Cl)cc(Cl)c(OC(=O)CCCCCCCCCCC)c2Cl)c1Cl`: the result was inactive.

In the case of `COC(=O)C(=O)C(C(=O)C(=O)Nc1ccc(C)cc1C)c1nc2ccc(Cl)cc2[nH]c1=O` (stereo unspecified), the EC50 is > 57.5 µM and the IC50 came to 47.9 µM.

Take `CC1(C)Oc2ccc3c(=O)cc(-c4ccccc4)oc3c2C1C(=O)O` (stereo unspecified): the EC50 is > 200 µM and the IC50 is > 200 µM.

Take `CC1(C)CC(=O)C(/C=N/C(=S)NC2CCCCC2)=C(O)C1`: the EC50 is > 100 µM and the IC50 is > 100 µM.

Take `COc1ccc(N2C(=O)c3c(c4[nH]c5ccc(OC)cc5c4c4ccc(C(C)(C)C)cc34)C2=O)cc1`: the EC50 is > 11 µM and the IC50 was > 11 µM.

For `CCCCN1C(=O)C(NC(C)=O)C1COC(C)(C)C` (stereo unspecified), the EC50 is > 479 µM and the IC50 was > 479 µM.

For the compound `C=CCOCCCC(=O)C(=[N+]=[N-])C(=O)OC`, the EC50 is > 251 µM and the IC50 stood at 57.5 µM.

With `CCOC(=O)C(C)(C)Oc1ccc(Cl)cc1`, the EC50 was > 200 µM and the IC50 is > 200 µM.

Take `CCOc1ccc(NC(=O)C(=O)NO)cc1`: the EC50 is > 302 µM and the IC50 came to 178 µM.

Consider `COC(=O)c1ccc(CCc2cc(O)ccc2O)cc1`, for which the EC50 is > 200 µM and the IC50 worked out at 4.9 µM.

As for `CNC(=S)NNC1=NCCCCN1`, the EC50 is > 200 µM and the IC50 came out at 110 µM.

As for `O=C(OCc1ccccc1)[C@H]1O[C@@H]1C(=O)OCc1ccccc1`, the EC50 was > 200 µM and the IC50 was determined as 25.7 µM.

Regarding `CCOC(=O)C(CO)(CC(CO)(C(C)=O)C(=O)OCC)C(C)=O` (stereo unspecified), the EC50 is > 200 µM and the IC50 was 27.5 µM.

For the compound `O=C(O)CSCc1cc(C(=O)Nc2ccc(/C=C/c3ccc(NC(=O)c4cc(CSCC(=O)O)c5cccnc5c4O)cc3S(=O)(=O)O)c(S(=O)(=O)O)c2)c(O)c2ncccc12`, the EC50 is 0.832 µM and the 50% inhibitory concentration (IC50) stood at 22.4 µM.

As for `Cc1nc2c(O)cc(Br)c(O)c2nc1C`, the result was inactive.

As to `O=[N+]([O-])c1ccc(C2CC(c3ccc(NCc4nc5ccccc5[nH]4)cc3)=NO2)cc1` (stereo unspecified), the EC50 was > 9.12 µM and the IC50 is > 9.12 µM.

For the compound `Nc1ccc(Cc2c(N)[nH]c(=O)[nH]c2=O)cc1`, the EC50 is > 200 µM and the concentration for half-maximal inhibition (IC50) is > 200 µM.

Turning to `CCCNC(=O)NS(=O)(=O)c1ccc(Cl)cc1`, the outcome was inactive.

For the compound `CN1C[C@@H]2CC(=O)CC[C@@H]2C[C@H]1C#N`, the EC50 was > 676 µM and the IC50 amounted to 339 µM.

As to `O=C(CNc1ccccc1[N+](=O)[O-])Nn1c(-c2ccccc2)nc2ccccc2c1=O`, the EC50 is > 200 µM and the half-maximal inhibitory concentration (IC50) worked out at 11.7 µM.

For the compound `CC(=O)OCC12CCC(C)=CC1OC1C3(O)N=C(C)OC3C2(C)C12CO2` (stereo unspecified), the EC50 is > 200 µM and the IC50 is 0.0661 µM.

With `CC(=O)OC1OC(C2c3cccc(O)c3C(=O)c3c(O)cc(CO)cc32)C(O)C(O)C1O` (stereo unspecified), the EC50 was > 200 µM; the IC50 was 4.07 µM and 4.17 µM.

For `Cc1ccc(S(=O)(=O)Nc2ccccc2C(C)(C)C)cc1`, the result was inactive.

In the case of `NC(CSSCC(NC(=O)OCc1ccccc1)C(=O)O)C(=O)O` (stereo unspecified), the EC50 was > 200 µM and the IC50 is > 200 µM.

As for `CNC(=O)c1n[nH][nH]c1=O`, the EC50 was > 200 µM and the IC50 is > 200 µM.

For `CC(=O)Nc1ccc(C(=O)N2N=C(C)/C(=C/c3cccc([N+](=O)[O-])c3)C2=O)cc1`, the EC50 was > 47.9 µM and the IC50 is > 47.9 µM.

For `COC(=O)C(Cc1ccc([N+](=O)[O-])cc1)NC(=O)C(CC(=O)OC(C)(C)C)NC(=O)OC(C)(C)C` (stereo unspecified) (Boc-Asp(OtBu)-[Phe(4-NO2)]-OMe; configuration not given here), the EC50 is > 200 µM and the IC50 stood at 93.3 µM.

For the compound `CCOC(=O)C(N)CSSCC(N)C(=O)OCC` (stereo unspecified), the EC50 was > 200 µM and the IC50 is > 200 µM.

As to `Cc1ccc(C(=O)O)c(CC2Cc3c(C)cccc3C2=O)c1` (stereo unspecified), the EC50 is > 200 µM and the IC50 stood at 155 µM.

Consider `CC(C)CC1[C@@H](OCc2ccccc2)COS(=O)(=O)N1Cc1ccccc1` (stereo partly specified), for which the EC50 was > 200 µM and the IC50 amounted to 77.6 µM.

For the compound `CC(C)C1NC(=O)C(Cc2ccccc2)NC(=O)C2NC(=O)C(Cc3ccccc3)NC(=O)C3CCCN3C(=O)CNC(=O)C(Cc3ccccc3)NC(=O)C3CNCCCCC(C(=O)O)NC(=O)C4NC(=O)C(CC(N)=O)NC(=O)CNC(=O)C(C(O)C(=O)O)NC(=O)C(CSCC(NC(=O)C(CCC(N)=O)NC(=O)C(CCCNC(=N)N)NC(=O)C(N)CSC4C)C(=O)NC(CSC2C)C(=O)N3)NC1=O` (stereo unspecified), the outcome was active.

`c1ccc(C2(c3ccccc3)S/C(=C3/SC(c4ccccc4)(c4ccccc4)c4ccccc43)c3ccccc32)cc1`: the result was inactive.

Regarding `O=c1oc2ccc([N+](=O)[O-])cc2cc1Br`, the EC50 is > 145 µM and the IC50 was > 145 µM.

As for `CC(C)CCC[C@@H](C)[C@H]1CC[C@H]2C3=C[C@H](OS(=O)(=O)O)[C@@]4(O)C[C@@H](O)CC[C@]4(C)[C@@]3(O)CC[C@]12C`, the EC50 was > 200 µM and the IC50 was found to be 97.7 µM.

With `CC1=NNC(=O)C1C1CC(c2c[nH]c3ccccc23)=NN=C1Cl` (stereo unspecified), the EC50 is > 200 µM and the IC50 is 93.3 µM.

As to `N#CC12C(=O)NC(=O)C1(C#N)C2c1ccccc1` (stereo unspecified), the EC50 is > 501 µM and the IC50 is > 501 µM.

In the case of `CCOc1ccccc1C1N2CCN(CC2)C(c2ccccc2OCC)N2CCN1CC2` (stereo unspecified), the outcome was inactive.

As to `N/C(=N\N=C/c1c(O)cc(O)cc1O)NO`, the outcome was inactive.

As for `CC1(C)CCCCCC(O)C(O)CCC(C)(C)C1=O` (stereo unspecified), the EC50 is > 200 µM and the IC50 was > 200 µM.

`COC(=O)/C(C#N)=C\NC(=S)NNC(C)=O`: the EC50 was > 200 µM and the half-inhibitory concentration (IC50) was > 200 µM.

Regarding `Cc1cn(COCCOP(=O)(OCOC(=O)C(C)(C)C)OCOC(=O)C(C)(C)C)c(=O)[nH]c1=O`, the EC50 is > 200 µM and the IC50 came to 110 µM.

For the compound `COc1ccc2c(c1)C1Oc3ccccc3CC1(O)CO2` (stereo unspecified), the EC50 is > 200 µM and the IC50 came out at 132 µM.

Turning to `CC(=O)O[C@@H]1CC[C@]2(C)C3C[C@H](OC(C)=O)[C@]4(C)C(C(C)CCc5nc6ccccc6o5)CCC4C3[C@H](OC(C)=O)C[C@@H]2C1` (stereo partly specified), the EC50 was > 50.1 µM and the IC50 was 8.51 µM.

As for `Cc1[nH]n(-c2nc(O)c(C)c(=O)[nH]2)c(=O)c1CCO`, the EC50 was > 200 µM and the IC50 was > 200 µM.

For the compound `CCOC(=O)C(NC(=O)CC)(N1CCN(c2cc3c(cc2F)c(=O)c(C(=O)O)cn3C2CC2)CC1)C(F)(F)F` (stereo unspecified), the EC50 was > 200 µM and the IC50 was found to be 126 µM.

As for `NNC1=Nc2cc3c(cc2C(=O)N2C[C@H](O)CC12)OCO3` (stereo partly specified), the EC50 was > 200 µM and the IC50 was > 200 µM.

Regarding `CC(C)CC(NC(=O)C(Cc1ccc(O)cc1)NC(=O)C(C)N)C(=O)NCC(=O)NC(CCCCN)C(=O)NC(CCCCN)C(=O)NC(C(=O)NC(C)C(=O)NC(C(=O)NC(CC(=O)O)C(=O)O)C(C)O)C(C)C` (stereo unspecified) (H-AYLGKKVATD-OH; configuration not given here), the result was inactive.

For the compound `Cc1n[nH]c(=O)n1N1C(=O)c2ccccc2C1=O`, the EC50 is > 200 µM and the IC50 was > 200 µM.

For `O=C1CCCC2CCCCN12` (stereo unspecified), the result was inactive.

`O=C(O)CN1CCN2CCCCCCCCN(CC1)CCN(CC(=O)O)CC2`: the EC50 was > 200 µM and the IC50 came out at 13.2 µM.

In the case of `CO/N=C/c1cc(NC(=S)c2ccoc2C)ccc1Cl`, the 50% effective concentration (EC50) was 0.0575 µM and the IC50 was determined as 29.5 µM.

Take `Cc1cc(C)nc(NS(=O)(=O)c2ccc(NNc3c4ccccc4nc4c(C(=O)Nc5ccc(S(=O)(=O)Nc6cc(C)on6)cc5)cccc34)cc2)n1`: the EC50 is > 200 µM and the IC50 worked out at 34.7 µM.

For `COc1ccc2c(c1)OC(c1ccccc1O)CC2=O` (stereo unspecified), the EC50 is > 186 µM and the 50% inhibitory concentration (IC50) came to 30.2 µM.

Consider `CCN1C[C@]2(C)CCC(OC)C34[C@@H]5C[C@@H]6C(OC)[C@@H]5[C@@]5(C[C@@H]6OC)OCO[C@]5([C@H]13)[C@@H](OC(C)=O)[C@@H]42` (stereo partly specified), for which the outcome was inactive.

Turning to `COC(=O)c1cc2cc(OC)c(OC)cc2cc(C(=O)OC)c1=O`, the EC50 was > 10.7 µM and the IC50 was > 10.7 µM.

In the case of `CN(C)C=O.CN(C)C=O.CN1C(C(=O)Nc2ccccn2)=C([O-])c2ccccc2S1(=O)=O.CN1C(C(=O)Nc2ccccn2)=C([O-])c2ccccc2S1(=O)=O.[Cu+2]`, the outcome was inactive.

`Cc1ccc(NC(=O)CC(=O)n2nc(C)c(N=Nc3ccccc3C(=O)O)c2C)cc1`: the EC50 was > 427 µM and the IC50 was > 427 µM.

In the case of `Cc1ccc(-c2[nH]c(=O)n(C3OC(CO)C(O)C(O)C3O)c(=O)c2C#N)cc1` (stereo unspecified), the EC50 was > 200 µM and the IC50 is > 200 µM.

As to `CC1(C)OC(=O)C(=Cc2cccc(Cl)c2)C(=O)O1`, the EC50 is > 490 µM and the IC50 is > 200 µM.

For `CC1=CC(=O)Nc2ccccc2S1`, the EC50 is > 234 µM and the 50% inhibitory concentration (IC50) is 85.1 µM.

As for `Cc1ccccc1-c1nc2c(N)nc(N)nc2nc1N`, the result was inactive.

With `COc1cc(C)cc2c1OC(c1ccccc1)CC2=O` (stereo unspecified), the EC50 is > 200 µM and the IC50 was 52.5 µM.

Regarding `Nc1ncnc2c1sc1nc3ccccc3n12`, the EC50 is > 200 µM and the 50% inhibitory concentration (IC50) is > 200 µM.

In general, EC50 refers to the concentration that produces a half-maximal response. Broadly, the IC50 is the point on the concentration scale where inhibition reaches its midpoint.
